Active and inactive are the calls of the source. No cut-off for these calls is given here.
Columns and labels:
[1] = target: Lysine-specific demethylase 5B (Homo sapiens, UniProt Q9UGL1); test: Binding affinity to KDM5B in human PC-3 cells assessed as thermal stability by measuring KDM5B expression level preincubated with compound for 6 hrs followed by 20 mins incubation under 46 to 56 degreeC by CETSA based Western blot analysis; type: cell-based; settings: time 380.0 min
[2] = Acute toxicity in Kunming mouse assessed as effect on heart at 2 g/Kg, IG measured after 2 weeks by H&E staining based analysis; type: tissue-based; settings: in vivo, po, 2000 mg/kg, 336 h

Lysine-specific demethylase 5B, sequence (Q9UGL1 whole entry): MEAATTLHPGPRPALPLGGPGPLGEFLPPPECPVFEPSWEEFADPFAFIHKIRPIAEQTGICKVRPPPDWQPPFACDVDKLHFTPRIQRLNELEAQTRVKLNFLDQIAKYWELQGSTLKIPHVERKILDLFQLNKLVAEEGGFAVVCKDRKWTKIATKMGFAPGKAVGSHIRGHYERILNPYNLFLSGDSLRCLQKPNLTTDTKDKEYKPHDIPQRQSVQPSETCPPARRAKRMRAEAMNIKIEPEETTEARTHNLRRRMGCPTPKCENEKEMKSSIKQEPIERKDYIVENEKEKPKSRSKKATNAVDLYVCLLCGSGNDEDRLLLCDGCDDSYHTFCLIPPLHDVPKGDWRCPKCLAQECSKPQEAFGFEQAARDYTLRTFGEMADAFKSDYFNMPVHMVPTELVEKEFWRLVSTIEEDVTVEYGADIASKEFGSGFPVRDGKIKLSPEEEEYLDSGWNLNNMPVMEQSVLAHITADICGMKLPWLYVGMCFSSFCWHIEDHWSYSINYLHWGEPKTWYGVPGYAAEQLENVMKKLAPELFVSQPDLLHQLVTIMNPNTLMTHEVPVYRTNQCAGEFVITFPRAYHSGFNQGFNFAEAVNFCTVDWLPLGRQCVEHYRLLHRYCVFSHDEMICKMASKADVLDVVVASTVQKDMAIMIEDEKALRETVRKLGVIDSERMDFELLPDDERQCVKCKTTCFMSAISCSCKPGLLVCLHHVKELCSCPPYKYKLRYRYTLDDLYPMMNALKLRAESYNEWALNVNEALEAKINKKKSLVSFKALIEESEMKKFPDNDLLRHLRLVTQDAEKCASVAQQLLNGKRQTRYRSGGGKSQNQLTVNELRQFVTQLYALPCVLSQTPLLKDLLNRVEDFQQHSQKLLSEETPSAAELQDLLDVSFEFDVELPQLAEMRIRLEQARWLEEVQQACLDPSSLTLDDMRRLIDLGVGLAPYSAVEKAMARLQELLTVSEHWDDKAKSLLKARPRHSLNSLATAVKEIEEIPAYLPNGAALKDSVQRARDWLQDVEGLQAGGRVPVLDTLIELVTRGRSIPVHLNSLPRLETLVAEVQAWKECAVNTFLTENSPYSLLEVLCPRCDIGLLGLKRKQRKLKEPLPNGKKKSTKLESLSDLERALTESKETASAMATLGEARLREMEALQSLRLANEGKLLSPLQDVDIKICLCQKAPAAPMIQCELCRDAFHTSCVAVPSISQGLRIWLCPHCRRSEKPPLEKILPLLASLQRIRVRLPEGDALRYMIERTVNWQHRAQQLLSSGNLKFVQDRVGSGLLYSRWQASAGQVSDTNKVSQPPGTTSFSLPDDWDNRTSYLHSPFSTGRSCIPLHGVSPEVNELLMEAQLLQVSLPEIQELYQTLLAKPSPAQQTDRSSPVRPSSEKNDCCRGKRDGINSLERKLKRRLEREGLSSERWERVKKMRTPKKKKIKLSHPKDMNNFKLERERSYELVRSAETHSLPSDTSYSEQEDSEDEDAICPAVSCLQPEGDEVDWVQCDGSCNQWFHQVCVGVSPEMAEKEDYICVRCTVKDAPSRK

With `CN1CCN(CCNC(=O)c2cc(-c3ccc4ccccc4c3)nc3c2cnn3-c2ccccc2)CC1` the Activity [1] was “Active” and the Activity [2] was “Non-Toxic”.
